Assay results reported in patent US20200157638A1, “BIOMARKERS AND PATIENT SELECTION STRATEGIES” (SIERRA ONCOLOGY, INC., priority 2017, published 2020).

Legend:
OVCAR-3 xenograft [1] = assay: OVCAR-3 xenograft model, SRA737 versus Olaparib (Example 3); type: in vivo, mouse; conditions: 100 mg/kg
OVCAR-3 xenograft [2] = assay: OVCAR-3 xenograft model of HGSOC, SRA737 monotherapy (Example 2); type: in vivo; conditions: 100 mg/kg, 3 cycles, 5 days on and 2 days off; FIG. 6B
Source text: The OVCAR-3 tumor cell line was derived from a platinum insensitive patient and harbors an amplification of CCNE1 (encoding cyclin E) and mutation in TP53 (encoding p53), two genomic alterations described herein to contribute to Chk1 inhibitor sensitivity.

HT-29 = assay: In vitro growth inhibition of cancer cell lines by SRA737; type: cell-based; conditions: HT-29 colorectal cancer cell line; APC mutation, c-MYC amplification, BRAF and PIK3CA activation; FIG. 4
Source text: (§1) In cancer cells, replication stress induced by oncogenes (e.g., MYC and RAS oncogenes) and/or loss of function in tumor suppressors (e.g., TP53) results in persistent DNA damage and genomic instability, a trigger of the DDR network. […] SK-BR-3 is a breast cancer cell line harboring a deleterious mutation is TP53 and amplification in c-MYC. HT-29 is a colorectal cancer (CRC) cell line harboring a deleterious mutation in the tumor suppressor gene, adenomatous polyposis coli (APC), an amplification in c-MYC, and an activation mutation in the oncogenes, BRAF and PIK3CA. DU-145 is metastatic prostate cancer cell line harboring a deleterious mutation in the tumor suppressors TP53 and RB1, an amplification in KRAS, and alterations of the DNA damage repair genes TP53B1, MLH1 and MSH3. A673 is a rhabdomyosarcoma cell line harboring genetic alterations in the tumor suppressor genes, CDKN2A and CDKN2B and genetic alterations in the DNA damage repair genes BRCA1, Rad50 and Rad51D. OVCAR-3 is an ovarian cancer cell line harboring a deleterious mutations in the tumor suppressors TP53 and RB1 and an amplification of CCNE1. […] The results of these in vitro experiments confirm that cancer cells with genetic alterations in tumor suppressor genes, oncogenes, and/or DNA damage repair genes are sensitive to inhibition of Chk1.

SK-BR-3 = assay: as above; type: cell-based; conditions: SK-BR-3 breast cancer cell line; TP53 mutation, c-MYC amplification; FIG. 4
Source text: as §1

OVCAR-3 = assay: as above; type: cell-based; conditions: OVCAR-3 ovarian cancer cell line; TP53 and RB1 mutations, CCNE1 amplification; FIG. 5
Source text: as §1

DU-145 = assay: as above; type: cell-based; conditions: DU-145 metastatic prostate cancer cell line; TP53 and RB1 mutations, KRAS amplification; FIG. 4
Source text: as §1

OVCAR-5 = assay: as above; type: cell-based; conditions: OVCAR-5 ovarian cancer cell line; KRAS activation, CCNE1 overexpression; FIG. 5
Source text: as §1

A673 = assay: as above; type: cell-based; conditions: A673 rhabdomyosarcoma cell line; CDKN2A/CDKN2B and BRCA1, Rad50, Rad51D alterations; FIG. 4
Source text: as §1

N#Cc1cnc(Nc2cc(NCC3CNCCO3)c(C(F)(F)F)cn2)cn1 (stereo not drawn) [SRA737, 5-[[4-[[morpholin-2-yl]methylamino]-5-(trifluoromethyl)-2-pyridyl]amino]pyrazine-2-carbonitrile]
tumor growth as compared to Olaparib (OVCAR-3 xenograft [1]; FIG. 7A): significantly reduced tumor growth | body weight (OVCAR-3 xenograft [1]; FIG. 7B): not significantly altered | tolerability (body weight loss) (OVCAR-3 xenograft [2]): well tolerated as demonstrated by minimal body weight loss | sensitivity to Chk1 inhibition (growth inhibition) (HT-29): demonstrated sensitivity to Chk1 inhibition | sensitivity to Chk1 inhibition (growth inhibition) (SK-BR-3): demonstrated sensitivity to Chk1 inhibition | sensitivity to Chk1 inhibition (growth inhibition) (OVCAR-3): demonstrated sensitivity to Chk1 inhibition | sensitivity to Chk1 inhibition (growth inhibition) (DU-145): demonstrated sensitivity to Chk1 inhibition | sensitivity to Chk1 inhibition (growth inhibition) (OVCAR-5): demonstrated sensitivity to Chk1 inhibition | sensitivity to Chk1 inhibition (growth inhibition) (A673): demonstrated sensitivity to Chk1 inhibition
